Assay [1] concerns the target T1, rat TRPV1 (Rattus norvegicus, UniProt O35433).
T1 construct: expressed in transfected cells; host or cells: HEK293 (rTRPV1/HEK293), geneticin selection
The assay is described as follows: Functional assay: block of capsaicin-induced Ca2+ influx, rat assay (rTRPV1/HEK293, FLIPR). To be noted: rTRPV1/HEK293 cells, capsaicin challenge, Fluo-3 fluorescence; mean; > value = solubility limit in assay medium. The assay is classed as cell-based. The method in brief:
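Compounds, as free base or TFA salt, tested from 10 μM in three-fold steps on rTRPV1-transfected HEK293 cells, with 30 min preincubation in low-calcium (20 μM) buffer. Capsaicin-evoked Ca2+ influx measured by FLIPR fluo3 signal before and 100 s after addition. Averaged IC50 from non-linear fits.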

Assay [2] addresses T2, human TRPV1 (Homo sapiens, UniProt Q8NER1).
T2 construct: expressed in transfected cells; host or cells: HEK293 (hTRPV1/HEK293), zeocin selection
The assay is described as follows: Functional assay: block of capsaicin-induced Ca2+ influx, human assay (hTRPV1/HEK293, FLIPR). The assay is classed as cell-based. As to conditions: hTRPV1/HEK293 cells, 150 nM capsaicin challenge, Fluo-3 fluorescence; mean; > value = solubility limit in assay medium. The gist of the method: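 HEK293 cells stably expressing human TRPV1, fluo3-loaded, preincubated 30 min with compound (serial 3-fold dilutions from 10 μM, duplicate) in 20 μM Ca2+ buffer. Capsaicin response taken as fluo3 fluorescence change before vs 100 s after agonist; IC50 by non-linear regression, mean values; free base or TFA salt.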

T1 sequence (O35433 whole entry): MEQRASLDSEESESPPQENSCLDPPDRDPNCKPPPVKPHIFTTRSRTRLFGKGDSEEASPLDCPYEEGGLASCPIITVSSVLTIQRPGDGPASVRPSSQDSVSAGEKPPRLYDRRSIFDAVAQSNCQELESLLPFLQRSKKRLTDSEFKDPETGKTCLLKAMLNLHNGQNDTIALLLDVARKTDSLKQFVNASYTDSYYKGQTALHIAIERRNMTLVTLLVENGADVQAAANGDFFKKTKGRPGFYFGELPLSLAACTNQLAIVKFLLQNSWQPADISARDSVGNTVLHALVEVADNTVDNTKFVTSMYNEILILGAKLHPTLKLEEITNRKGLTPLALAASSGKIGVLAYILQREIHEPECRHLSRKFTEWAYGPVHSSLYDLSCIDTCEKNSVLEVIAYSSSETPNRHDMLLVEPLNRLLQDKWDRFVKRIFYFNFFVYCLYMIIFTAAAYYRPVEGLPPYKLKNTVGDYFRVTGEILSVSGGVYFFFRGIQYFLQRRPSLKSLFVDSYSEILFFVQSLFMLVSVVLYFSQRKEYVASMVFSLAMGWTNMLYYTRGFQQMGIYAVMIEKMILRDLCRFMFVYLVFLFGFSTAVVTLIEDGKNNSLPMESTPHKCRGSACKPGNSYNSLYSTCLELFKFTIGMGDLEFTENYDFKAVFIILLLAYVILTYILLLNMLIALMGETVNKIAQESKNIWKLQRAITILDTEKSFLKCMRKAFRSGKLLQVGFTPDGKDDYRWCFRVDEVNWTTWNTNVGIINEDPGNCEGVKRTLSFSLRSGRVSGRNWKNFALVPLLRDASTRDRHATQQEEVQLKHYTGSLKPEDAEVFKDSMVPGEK
T2 sequence (Q8NER1 whole entry): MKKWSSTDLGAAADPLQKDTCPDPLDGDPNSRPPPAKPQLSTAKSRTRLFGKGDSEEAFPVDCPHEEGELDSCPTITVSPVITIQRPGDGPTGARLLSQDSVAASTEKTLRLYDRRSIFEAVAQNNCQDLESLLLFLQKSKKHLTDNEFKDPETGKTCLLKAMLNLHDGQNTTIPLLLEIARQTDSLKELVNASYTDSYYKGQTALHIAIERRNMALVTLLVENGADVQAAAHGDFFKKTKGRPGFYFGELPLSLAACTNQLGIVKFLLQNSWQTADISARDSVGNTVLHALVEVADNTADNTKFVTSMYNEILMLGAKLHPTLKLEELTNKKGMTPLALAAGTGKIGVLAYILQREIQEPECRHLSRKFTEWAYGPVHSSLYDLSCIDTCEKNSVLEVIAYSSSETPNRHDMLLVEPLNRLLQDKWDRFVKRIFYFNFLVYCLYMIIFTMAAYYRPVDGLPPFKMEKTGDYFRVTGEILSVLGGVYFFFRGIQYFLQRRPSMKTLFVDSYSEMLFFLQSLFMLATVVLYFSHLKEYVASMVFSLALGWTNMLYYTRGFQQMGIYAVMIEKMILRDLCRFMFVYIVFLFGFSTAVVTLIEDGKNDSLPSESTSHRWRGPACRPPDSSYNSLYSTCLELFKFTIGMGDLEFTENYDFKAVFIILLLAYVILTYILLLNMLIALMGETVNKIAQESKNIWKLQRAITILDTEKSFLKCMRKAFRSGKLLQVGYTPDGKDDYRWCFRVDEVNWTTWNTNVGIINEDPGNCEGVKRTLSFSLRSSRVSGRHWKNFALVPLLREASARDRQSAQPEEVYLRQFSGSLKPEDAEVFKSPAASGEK

As a reminder, the IC50 is the concentration needed to halve the response being measured. A lower IC50 goes with higher potency. For `O=S(=O)(c1ccc(Nc2ncnc3sc(Nc4c(Cl)cccc4Cl)nc23)cc1)N1CCNCC1` [Example 134, N^2-(2,6-Dichloro-phenyl)-N^7-[4-(piperazine-1-sulfonyl)-phenyl]-thiazolo[5,4-d]pyrimidine-2,7-diamine], the results for the IC50 in assay [1] and in assay [2] were 78 nM and 202 nM, respectively.

Turning to `Cc1nc(Nc2ccc(SC(F)(F)F)c(Cl)c2)c2nc(Nc3c(Cl)cccc3Cl)sc2n1` [Example 135, N^7-(3-Chloro-4-trifluoromethylsulfanyl-phenyl)-N^2-(2,6-dichloro-phenyl)-5-methyl-thiazolo[5,4-d]pyrimidine-2,7-diamine], the IC50 amounted to 112 nM in assay [1] and 203 nM in assay [2].

As to `Cc1cccc(C)c1Nc1nc2c(Nc3ccc(I)cc3)ncnc2s1` [Example 137, N^2-(2,6-Dimethyl-phenyl)-N^7-(4-iodo-phenyl)-thiazolo[5,4-d]pyrimidine-2,7-diamine], the IC50 in assay [1] is 48 nM; in assay [2], 225 nM.

In the case of `Cc1ccc(Nc2nc(C)nc3sc(Nc4c(C)cccc4C)nc23)cc1` [Example 138, N^2-(2,6-Dimethyl-phenyl)-5-methyl-N^7-p-tolyl-thiazolo[5,4-d]pyrimidine-2,7-diamine], the IC50 in assay [1] stood at 128 nM; in assay [2], 271 nM.

As to `Cc1nc(Nc2ccc3c(c2)N(C)CCC3)c2nc(Nc3c(Cl)cccc3Cl)sc2n1` [Example 139, N^2-(2,6-Dichloro-phenyl)-5-methyl-N^7-(1-methyl-1,2,3,4-tetrahydro-quinolin-7-yl)-thiazolo[5,4-d]pyrimidine-2,7-diamine], the IC50 was 78 nM in assay [1] and 280 nM in assay [2].

Consider `Cc1nc(Nc2ccccc2)c2nc(Nc3c(C)cccc3C)sc2n1` [Example 141, N^2-(2,6-Dimethyl-phenyl)-5-methyl-N^7-phenyl-thiazolo[5,4-d]pyrimidine-2,7-diamine], for which the IC50 worked out at 223 nM in assay [1] and 350 nM in assay [2].

Consider `Cc1cccc(C)c1Nc1nc2c(Nc3ccc(C#N)c(Cl)c3)ncnc2s1` [Example 142, 2-Chloro-4-[2-(2,6-dimethyl-phenylamino)-thiazolo[5,4-d]pyrimidin-7-ylamino]-benzonitrile], for which the 50% inhibitory concentration (IC50) in assay [1] was 231 nM; in assay [2] it was 394 nM.

As to `Cc1cccc(C)c1Nc1nc2c(Nc3ccc(F)cc3)ncnc2s1` [Example 144, N^2-(2,6-Dimethyl-phenyl)-N^7-(4-fluoro-phenyl)-thiazolo[5,4-d]pyrimidine-2,7-diamine], the results for the IC50 in assay [1] and in assay [2] were 221 nM and 431 nM, respectively.

Take `Cc1cccc(C)c1Nc1nc2c(Nc3ccc(C(=O)N(C)C)cc3)ncnc2s1` [Example 145, 4-[2-(2,6-Dimethyl-phenylamino)-thiazolo[5,4-d]pyrimidin-7-ylamino]-N,N-dimethyl-benzamide]: the results for the IC50 in assay [1] and in assay [2] were 442 nM and 452 nM, respectively.

Regarding `Cc1cccc(C)c1Nc1nc2c(Nc3ccccc3)ncnc2s1` [Example 147, N^2-(2,6-Dimethyl-phenyl)-N^7-phenyl-thiazolo[5,4-d]pyrimidine-2,7-diamine], the half-inhibitory concentration (IC50) in assay [1] stood at 354 nM; in assay [2] it was 723 nM.

On to `Cc1ccc(Nc2ncnc3sc(Nc4c(C)cccc4C)nc23)cc1F` [Example 148, N^2-(2,6-Dimethyl-phenyl)-N^7-(3-fluoro-4-methyl-phenyl)-thiazolo[5,4-d]pyrimidine-2,7-diamine], for which the IC50 in assay [1] was determined as 126 nM; in assay [2], 735 nM.

For the compound `Cc1cccc(C)c1Nc1nc2c(Nc3ccc(C#N)c(C(F)(F)F)c3)ncnc2s1` [Example 149, 4-[2-(2,6-Dimethyl-phenylamino)-thiazolo[5,4-d]pyrimidin-7-ylamino]-2-trifluoromethyl-benzonitrile], the IC50 in assay [1] stood at 257 nM; in assay [2], 737 nM.

With `Cc1cccc(C)c1Nc1nc2c(Nc3ccc4c(c3)OCCO4)ncnc2s1` [Example 150, N^7-(2,3-Dihydro-benzo[1,4]dioxin-6-yl)-N^2-(2,6-dimethyl-phenyl)-thiazolo[5,4-d]pyrimidine-2,7-diamine], the IC50 was determined as 204 nM in assay [1] and 937 nM in assay [2].

Consider `Cc1cccc(C)c1Nc1nc2c(Nc3ccc(S(=O)(=O)N4CCNCC4)cc3)ncnc2s1` [Example 151, N^2-(2,6-Dimethyl-phenyl)-N^7-[4-(Piperazine-1-sulfonyl)-phenyl]-thiazolo[5,4-d]pyrimidine-2,7-diamine], for which the IC50 in assay [1] is 349 nM; in assay [2] it was 1220 nM.

With `Cc1nc(Nc2ccc(N(C)S(C)(=O)=O)cc2)c2nc(Nc3c(Cl)cccc3Cl)sc2n1` [Example 152, N-{4-[2-(2,6-Dichloro-phenylamino)-5-methyl-thiazolo[5,4-d]pyrimidin-7-ylamino]-phenyl}-N-methyl-methanesulfonamide], the results for the IC50 in assay [1] and in assay [2] were 205 nM and 1220 nM, respectively.

With `CN1CCN(CCCNc2nc(Nc3ccc(C(F)(F)F)cc3)c3nc(Nc4c(Cl)cccc4Cl)sc3n2)CC1` [Example 153, N^2-(2,6-Dichloro-phenyl)-N^5-[3-(4-methyl-piperazin-1-yl)-propyl]-N^7-(4-trifluoromethyl-phenyl)-thiazolo[5,4-d]pyrimidine-2,5,7-diamine], the results for the 50% inhibitory concentration (IC50) in assay [1] and in assay [2] were 440 nM and 1420 nM, respectively.

In the case of `Cc1nc(Nc2ccc(C(=O)N(C)C)cc2)c2nc(Nc3c(Cl)cccc3Cl)sc2n1` [Example 157, 4-[2-(2,6-Dichloro-phenylamino)-5-methyl-thiazolo[5,4-d]pyrimidin-7-ylamino]-N,N-dimethyl-benzamide], the IC50 in assay [1] turned out to be 1210 nM; in assay [2], 1920 nM.

As to `Cc1ccc(Nc2ncnc3sc(Nc4c(C)cccc4C)nc23)c(O)c1` [Example 158, 2-[2-(2,6-Dimethyl-phenylamino)-thiazolo[5,4-d]pyrimidin-7-ylamino]-5-methyl-phenol], the IC50 stood at 313 nM in assay [1] and 1970 nM in assay [2].

With `Cc1cc(C(F)(F)F)ccc1Nc1ncnc2sc(Nc3c(C)cccc3C)nc12` [Example 159, N^2-(2,6-Dimethyl-phenyl)-N^7-(2-methyl-4-trifluoromethyl-phenyl)-thiazolo[5,4-d]pyrimidine-2,7-diamine], the IC50 is 1460 nM in assay [1] and greater than 2220 nM in assay [2].

In the case of `Cc1ccc(Nc2ncnc3sc(Nc4c(C)cccc4C)nc23)cc1O` [Example 160, 5-[2-(2,6-Dimethyl-phenylamino)-thiazolo[5,4-d]pyrimidin-7-ylamino]-2-methyl-phenol], the values for the IC50 in assay [1] and in assay [2] were greater than 6670 nM and 2990 nM, respectively.

As to `Cc1cccc(C)c1Nc1nc2c(Nc3ccc(N(C)S(C)(=O)=O)cc3)ncnc2s1` [Example 161, N-{4-[2-(2,6-Dimethyl-phenylamino)-thiazolo[5,4-d]pyrimidin-7-ylamino]-phenyl}-N-methyl-methanesulfonamide], the IC50 in assay [1] was 2290 nM; in assay [2] it was 3780 nM.

Consider `FC(F)(F)c1ccc(Nc2nc(N3CCNCC3)nc3sc(Nc4c(Cl)cccc4Cl)nc23)cc1Cl` [Example 162, N^7-(3-Chloro-4-trifluoromethyl-phenyl)-N^2-(2,6-dichloro-phenyl)-5-piperazin-1-yl-thiazolo[5,4-d]pyrimidine-2,7-diamine], for which the IC50 was determined as 3080 nM in assay [1] and 4280 nM in assay [2].

Take `FC(F)(F)c1ccc(Nc2nc(N3CCNCC3)nc3sc(Nc4c(Cl)cccc4Cl)nc23)cc1` [Example 163, N^2-(2,6-Dichloro-phenyl)-5-piperazin-1-yl-N^7-(4-trifluoromethyl-phenyl)-thiazolo[5,4-d]pyrimidine-2,7-diamine]: the IC50 in assay [1] was 5140 nM; in assay [2], 5950 nM.

As for `Cc1nc(Nc2ccc(N(C)S(C)(=O)=O)cc2)c2nc(Nc3c(C)cccc3C)sc2n1` [Example 164, N-{4-[2-(2,6-Dimethyl-phenylamino)-5-methyl-thiazolo[5,4-d]pyrimidin-7-ylamino]-phenyl}-N-methyl-methanesulfonamide], the IC50 in assay [1] worked out at 626 nM; in assay [2] it was 6510 nM.

Take `Cc1ccc(Nc2ncnc3sc(Nc4c(C)cccc4C)nc23)cc1C` [Example 165, N^2-(2,6-Dimethyl-phenyl)-N^7-(3,4-dimethyl-phenyl)-thiazolo[5,4-d]pyrimidine-2,7-diamine]: the concentration for half-maximal inhibition (IC50) in assay [1] and in assay [2] was greater than 6670 nM each time.

As to `Cc1nc(Nc2cccnc2)c2nc(Nc3c(Cl)cccc3Cl)sc2n1` [Example 166, N^2-(2,6-Dichloro-phenyl)-5-methyl-N^7-pyridin-3-yl-thiazolo[5,4-d]pyrimidine-2,7-diamine], the IC50 in assay [1] and in assay [2] was greater than 6670 nM each time.

Take `Cc1cccc(C)c1Nc1nc2c(Nc3ccc(C(F)(F)F)cc3Cl)ncnc2s1` [Example 167, N^7-(2-Chloro-4-trifluoromethyl-phenyl)-N^2-(2,6-dimethyl-phenyl)-thiazolo[5,4-d]pyrimidine-2,7-diamine]: the IC50 in assay [1] and in assay [2] was greater than 6670 nM throughout.

On to `COc1ccc(Nc2ncnc3sc(Nc4c(C)cccc4C)nc23)cc1C(F)(F)F` [Example 168, N^2-(2,6-Dimethyl-phenyl)-N^7-(4-methoxy-3-trifluoromethyl-phenyl)-thiazolo[5,4-d]pyrimidine-2,7-diamine], for which the IC50 in assay [1] and in assay [2] was greater than 6670 nM throughout.

As to `Cc1cccc(C)c1Nc1nc2c(Nc3ccc(C(N)=O)cc3)ncnc2s1` [Example 169, 4-[2-(2,6-Dimethyl-phenylamino)-thiazolo[5,4-d]pyrimidin-7-ylamino]-benzamide], the IC50 was 17300 nM in assay [1] and greater than 20000 nM in assay [2].

The values are drawn from US20080004253A1, “Thiazolopyrimidine modulators of TRPV1” (priority 2006, published 2008).
